# Counter-ions that a name gives are not always drawn.
# Key:
# Experiment in all cases: R-SAT selectivity profile of 26HCH16D
# [1] = target: T1, alpha1b/B (Mesocricetus auratus, UniProt P18841); type: cell-based, hamster; conditions: 4 doses in duplicate (3, 30, 300, 3000 nM)
# T1 construct: expressed in transfected cells; host or cells: NIH3T3, pSI vector
# T1 sequence (P18841 1-515): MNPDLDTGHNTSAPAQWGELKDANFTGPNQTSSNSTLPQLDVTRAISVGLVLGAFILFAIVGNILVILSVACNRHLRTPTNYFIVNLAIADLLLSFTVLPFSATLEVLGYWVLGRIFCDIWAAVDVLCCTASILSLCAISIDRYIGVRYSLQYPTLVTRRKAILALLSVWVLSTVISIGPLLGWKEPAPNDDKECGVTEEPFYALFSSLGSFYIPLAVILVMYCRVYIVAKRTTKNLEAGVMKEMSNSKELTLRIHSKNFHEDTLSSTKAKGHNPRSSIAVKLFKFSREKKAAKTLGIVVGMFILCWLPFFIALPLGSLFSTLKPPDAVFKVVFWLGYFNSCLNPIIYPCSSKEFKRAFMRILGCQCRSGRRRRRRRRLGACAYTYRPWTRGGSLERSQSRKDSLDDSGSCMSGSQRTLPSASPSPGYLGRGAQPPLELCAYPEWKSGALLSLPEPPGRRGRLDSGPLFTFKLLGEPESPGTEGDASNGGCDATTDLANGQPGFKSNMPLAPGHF
# Experimental: The functional receptor assay, Receptor Selection and Amplification Technology (R-SAT), was used (with minor modifications from that previously described U.S. Pat. No. 5,707,798) to screen compounds for efficacy at the 5-HT2A receptor. Briefly, NIH3T3 cells were grown in 96 well tissue culture plates to 70-80% confluence. Cells were transfected for 12-16 hours with plasmid DNAs using superfect (Qiagen Inc.) as per manufacture's protocols. R-SAT's were generally performed with 50 ng/well of receptor and 20 ng/well of Beta-galactosidase plasmid DNA. All receptor and G-protein constructs used were in the pSI mammalian expression vector (Promega Inc) as described in U.S. Pat. No. 5,707,798. The 5HT2A receptor gene was amplified by nested PCR from brain cDNA using the oligodeoxynucleotides based on the published sequence (see Saltzman et. al. Biochem. Biophys. Res. Comm. 181:1469-78 (1991)). Large-scale transfections, cells were transfected for 12-16 hours, then trypsinized and frozen in DMSO. […] Media was then removed from the plates and marker gene activity was measured by the addition of the beta-galactosidase substrate ONPG (in PBS with 5% NP-40). The resulting colorimetric reaction was measured in a spectrophotometric plate reader (Titertek Inc.) at […]. All data were analyzed using the computer program XLFit (IDBSm). […]
# [2] = target: T2, 5HT1A (Homo sapiens, UniProt P08908); type: cell-based; conditions: 4 doses in duplicate (3, 30, 300, 3000 nM)
# T2 construct: expressed in transfected cells; host or cells: NIH3T3, pSI vector
# T2 sequence (P08908 1-422): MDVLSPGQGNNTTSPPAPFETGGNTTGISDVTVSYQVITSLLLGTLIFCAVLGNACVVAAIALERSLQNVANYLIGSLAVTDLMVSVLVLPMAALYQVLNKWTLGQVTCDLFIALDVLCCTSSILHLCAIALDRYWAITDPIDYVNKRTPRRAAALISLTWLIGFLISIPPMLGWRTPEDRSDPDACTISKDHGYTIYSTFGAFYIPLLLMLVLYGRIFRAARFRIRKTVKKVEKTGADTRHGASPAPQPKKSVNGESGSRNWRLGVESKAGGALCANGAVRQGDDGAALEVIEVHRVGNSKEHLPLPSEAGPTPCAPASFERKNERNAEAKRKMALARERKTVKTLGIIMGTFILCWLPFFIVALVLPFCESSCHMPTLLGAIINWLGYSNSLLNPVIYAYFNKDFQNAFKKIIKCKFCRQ
# Experimental: (§1) The functional receptor assay, Receptor Selection and Amplification Technology (R-SAT), was used (with minor modifications from that previously described U.S. Pat. No. 5,707,798) to screen compounds for efficacy at the 5-HT2A receptor. Briefly, NIH3T3 cells were grown in 96 well tissue culture plates to 70-80% confluence. Cells were transfected for 12-16 hours with plasmid DNAs using superfect (Qiagen Inc.) as per manufacture's protocols. R-SAT's were generally performed with 50 ng/well of receptor and 20 ng/well of Beta-galactosidase plasmid DNA. All receptor and G-protein constructs used were in the pSI mammalian expression vector (Promega Inc) as described in U.S. Pat. No. 5,707,798. The 5HT2A receptor gene was amplified by nested PCR from brain cDNA using the oligodeoxynucleotides based on the published sequence (see Saltzman et. al. Biochem. Biophys. Res. Comm. 181:1469-78 (1991)). Large-scale transfections, cells were transfected for 12-16 hours, then trypsinized and frozen in DMSO. Frozen cells were later thawed, plated at 10,000-40,000 cells per well of a 96 well plate that contained drug. With both methods, cells were then grown in a humidified atmosphere with 5% ambient CO2 for five days. Media was then removed from the plates and marker gene activity was measured by the addition of the beta-galactosidase substrate ONPG (in PBS with 5% NP-40). The resulting colorimetric reaction was measured in a spectrophotometric plate reader (Titertek Inc.) at […]. All data were analyzed using the computer program XLFit (IDBSm). Efficacy is the percent maximal repression compared to repression by a control compound (ritanserin in the case of 5HT2A). pIC50 is the negative of the log(IC50), where IC50 is the calculated concentration in Molar that produces 50% maximal repression.
# (§2) R-SAT assays (as described in Example 42) were carried out with cells transfected with receptors (listed below) to determine the receptor selectivity profile for compound 26HCH16D. 5HT2A inverse agonist data (IC50 nM; % efficacy) were derived from detailed dose response curves (7 points in triplicate).
# [3] = target: T3, 5HT1E (Homo sapiens, UniProt P28566); type: cell-based; conditions: Agonist; 4 doses in duplicate (3, 30, 300, 3000 nM)
# T3 construct: expressed in transfected cells; host or cells: NIH3T3, pSI vector
# T3 sequence (P28566 whole entry): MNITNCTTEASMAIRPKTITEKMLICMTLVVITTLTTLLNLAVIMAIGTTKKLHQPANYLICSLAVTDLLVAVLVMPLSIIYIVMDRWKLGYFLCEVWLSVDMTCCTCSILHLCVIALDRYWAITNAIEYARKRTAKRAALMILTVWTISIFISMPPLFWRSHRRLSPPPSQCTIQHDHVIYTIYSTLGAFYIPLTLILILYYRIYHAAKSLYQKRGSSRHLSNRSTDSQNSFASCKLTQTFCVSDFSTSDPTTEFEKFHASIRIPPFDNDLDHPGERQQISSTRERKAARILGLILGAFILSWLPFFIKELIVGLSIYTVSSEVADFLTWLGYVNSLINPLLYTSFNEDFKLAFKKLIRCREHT
# Experimental: as §1, §2
# [4] = target: T4, alpha1a/D (Rattus norvegicus, UniProt P23944); type: cell-based; conditions: 4 doses in duplicate (3, 30, 300, 3000 nM)
# T4 construct: expressed in transfected cells; host or cells: NIH3T3, pSI vector
# T4 sequence (P23944 1-561): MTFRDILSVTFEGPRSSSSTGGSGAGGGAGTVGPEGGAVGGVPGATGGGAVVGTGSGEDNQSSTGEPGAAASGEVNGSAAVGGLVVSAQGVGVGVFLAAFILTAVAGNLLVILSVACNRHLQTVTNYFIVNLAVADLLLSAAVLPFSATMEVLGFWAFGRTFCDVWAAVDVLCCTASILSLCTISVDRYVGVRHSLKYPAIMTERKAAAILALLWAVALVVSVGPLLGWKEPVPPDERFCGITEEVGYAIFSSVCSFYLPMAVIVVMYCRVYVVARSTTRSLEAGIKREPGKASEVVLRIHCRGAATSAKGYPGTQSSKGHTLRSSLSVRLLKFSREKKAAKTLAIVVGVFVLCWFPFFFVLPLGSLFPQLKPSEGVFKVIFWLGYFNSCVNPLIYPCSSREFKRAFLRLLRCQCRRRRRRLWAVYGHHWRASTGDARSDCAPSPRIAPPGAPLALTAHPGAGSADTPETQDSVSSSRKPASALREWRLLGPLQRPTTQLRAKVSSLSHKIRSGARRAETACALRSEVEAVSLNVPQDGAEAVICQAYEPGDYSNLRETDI
# Experimental: as §1, §2
# [5] = target: T5, 5HT2B (Homo sapiens, UniProt P41595); type: cell-based; conditions: Antagonist; 4 dose profiling
# T5 construct: expressed in transfected cells; host or cells: NIH3T3, pSI vector
# T5 sequence (P41595 whole entry): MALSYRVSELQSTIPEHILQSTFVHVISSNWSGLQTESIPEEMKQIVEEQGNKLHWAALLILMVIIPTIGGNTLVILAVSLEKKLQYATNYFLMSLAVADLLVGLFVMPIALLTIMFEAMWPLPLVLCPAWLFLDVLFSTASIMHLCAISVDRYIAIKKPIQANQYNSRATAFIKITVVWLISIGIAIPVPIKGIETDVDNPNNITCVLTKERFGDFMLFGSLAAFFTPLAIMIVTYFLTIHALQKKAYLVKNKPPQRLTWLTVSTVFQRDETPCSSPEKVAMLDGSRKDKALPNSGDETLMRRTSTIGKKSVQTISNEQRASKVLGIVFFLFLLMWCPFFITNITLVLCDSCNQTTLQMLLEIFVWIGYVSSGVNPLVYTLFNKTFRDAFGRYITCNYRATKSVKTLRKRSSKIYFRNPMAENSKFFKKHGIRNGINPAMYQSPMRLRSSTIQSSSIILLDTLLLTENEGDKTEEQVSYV
# Experimental: as §1, §2
smiles,measurement,setting,value
"Cc1ccc(CN(C(=O)NCc2ccccc2)C2CCN(Cc3ccccc3)CC2)cc1 [Compound 26HCH16D, N-((4-Methylphenyl)methyl)-N-(1-(phenylmethyl)piperidin-4-yl)-N′-phenylmethylcarbamide hydrochloride]",Efficacy,[1]; Agonist,"nr (nr=activity less than 30% at all doses tested (3, 30, 300, 3000 nM), therefore EC50/IC50 greater than 3000 nM))"
same,Efficacy,[1]; Antagonist,"nr (nr=activity less than 30% at all doses tested (3, 30, 300, 3000 nM), therefore EC50/IC50 greater than 3000 nM))"
same,Efficacy,[2]; Agonist,"nr (nr=activity less than 30% at all doses tested (3, 30, 300, 3000 nM), therefore EC50/IC50 greater than 3000 nM))"
same,Efficacy,[2]; Antagonist,"nr (nr=activity less than 30% at all doses tested (3, 30, 300, 3000 nM), therefore EC50/IC50 greater than 3000 nM))"
same,Efficacy,[3],"nr (nr=activity less than 30% at all doses tested (3, 30, 300, 3000 nM), therefore EC50/IC50 greater than 3000 nM))"
same,Efficacy,[4]; Agonist,"nr (nr=activity less than 30% at all doses tested (3, 30, 300, 3000 nM), therefore EC50/IC50 greater than 3000 nM))"
same,Efficacy,[4]; Antagonist,"nr (nr=activity less than 30% at all doses tested (3, 30, 300, 3000 nM), therefore EC50/IC50 greater than 3000 nM))"
same,initial concentration at which at least 30% efficacy observed,[5],3000 nM

# — patent US9296694B2, “Azacyclic compounds” (ACADIA Pharmaceuticals Inc., priority 2000, dated 2016)
